The values that follow come from paper PMC4436593, “Endoplasmic reticulum stress-independent activation of unfolded protein response kinases by a small molecule ATP-mimic” (eLife, 2015).

Each structure is given as a SMILES string. Some results are limits rather than exact numbers.

Assay [1] has as its system XBP1 mRNA splicing in HEK293T cells. Briefly: XBP1 mRNA splicing by RT-PCR in HEK293T cells. The assay is classed as cell-based, human. To be noted: for XBP1 mRNA splicing (in words): IPAx 2 µM, 4 hr. Here is the method: To examine the effects of IPA in living cells, we monitored the UPR in HEK293T cells using RT-PCR to measure splicing of XBP1 mRNA. […] At a concentration of 2 μM IPA, splicing was induced within 2 hr (lane 5). […] We used tunicamycin (Tm), which induces ER stress by blocking N-linked glycosylation, as a positive control to induce the UPR (Figure 2A, lanes 7, and Figure 2B, lane 4).
Cells were lysed and total RNA was collected (Total RNA Kit 1, EZ-RNA, EZNA [USA]). PolyA^+ mRNA was reverse transcribed with M-MLV (Invitrogen), and the resulting cDNA was used as a template for PCR amplification across the fragment of XBP1 cDNA containing the intron. Primers used to amplify human XBP1: 5′-[…]-3′ and 5′-[…]-3′. To amplify murine XBP1: 5′-[…]-3′ and 5′-[…]-3′. PCR conditions were as follows: 95°C for 5 min, 95°C for 1 min, 58°C for 30 s, 72°C for 30 s, and 72°C for 5 min, with 20 cycles of amplification. PCR products were resolved on a 2.5% agarose tris-acetate EDTA (TAE) gel. As previously reported, a hybrid amplicon species consisting of unspliced Xbp-1 annealed to spliced Xbp-1 can also be produced through this PCR reaction and was visible as a slower migrating band above the unspliced amplicon. The same cDNA was used as template for PCR of DERLIN-3 and HERPUD1, both ATF6 targets, and GAPDH, which was used as loading control. Primers used included the following: DERLIN-3, 5′-[…]-3′ and 5′-[…]-3′; HERPUD1-1, 5′-[…]-3′ and 5′-[…]-3′; GAPDH, 5′-[…]-3′ and 5′-[…]-3′. PCR conditions were: 95°C × 5 min, 95°C × 1 min, 56°C × 30 s, 72°C for 30 s for 25 cycles, 72°C for 5 min at 4°C. PCR products were resolved on a 2% agarose TAE gel.

The test system of assay [2] is PERK and eIF2α phosphorylation in HEK293T cells. As to the kind of experiment: PERK mobility shift and eIF2α phosphorylation by immunoblotting in HEK293T cells. The assay is classed as cell-based. The method, then:
To evaluate effects of IPA on the PERK branch, we measured the phosphorylation state of PERK and eIF2α by Western blotting. […] We also monitored PERK activation by phosphorylation of eIF2α, detected with a phospho-eIF2α-specific antibody (Figure 3C).
Cells were lysed in 50 mM Tris-HCl, 2% SDS, 10% glycerol, 0.01% bromophenol blue, pH 6.8 supplemented with phosphatase inhibitors (Sigma) and protease inhibitors (Roche). 30 μg to 50 μg of total protein was loaded on each lane of 8% or 10% SDS-PAGE gels. The separated proteins were then transferred onto nitrocellulose membranes for immunoblotting. The following antibodies and dilutions were used: anti-β-actin 1:10,000 (A5441, Sigma), anti-total PERK at 1:1000 (C33E10, Cell Signaling Technology), anti-phospho eIF2α at 1:1000 (3597S, Cell Signaling Technology), anti-total eIF2α at 1:1000 (L57A5, Cell Signaling Technology). After overnight incubation with primary antibody, membranes were washed in PBS with 0.05% Tween and incubated in HRP-coupled secondary antibody anti-rabbit (611–1302, Rockland) or anti-mouse (610–1302, Rockland) diluted at 1:5000 in wash buffer. Immunoreactive bands were detected by chemiluminescence.
In general terms: Immunoblotting shows a protein as a band on a membrane.

The target of assay [3] is T1, PERK cytosolic domain (535–1093 Δ660–868) (Homo sapiens, UniProt Q9NZJ5, DEL660-868).
T1 construct: GST (N, cleaved yes); made in house; host or cells: E. coli BL21 star (DE3), co-expressed with lambda phosphatase
T1 sequence (Q9NZJ5 with tags, fused parts or gaps DEL660-868): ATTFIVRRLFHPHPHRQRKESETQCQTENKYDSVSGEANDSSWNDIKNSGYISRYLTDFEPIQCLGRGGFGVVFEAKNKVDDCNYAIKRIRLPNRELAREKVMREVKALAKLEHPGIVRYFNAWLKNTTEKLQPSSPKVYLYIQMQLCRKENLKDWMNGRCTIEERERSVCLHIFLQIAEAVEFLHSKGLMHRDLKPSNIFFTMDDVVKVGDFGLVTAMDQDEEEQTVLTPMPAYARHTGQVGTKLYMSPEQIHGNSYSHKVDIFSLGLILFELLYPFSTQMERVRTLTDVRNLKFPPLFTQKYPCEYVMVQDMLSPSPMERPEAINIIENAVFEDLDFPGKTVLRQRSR
Briefly: In vitro PERK cross-linking assay. The assay is classed as biochemical. The conditions noted are these: PERK 2 μM; IPAx 50 μM. Here is the method:
A solution of PERK cytosolic domain (535–1093 Δ660–868) (2 μM) was incubated with IPA or IPAx for 15 min before the addition of 250 μM of the amino group-reactive cross-linking agent bis[sulfosuccinimidyl] […] (BS2g-d0, Thermo Scientific). After 30-min incubation at room temperature Tris-HCl pH 7.5 was added to a final concentration of 55 mM. Samples were then boiled in Laemmli sample buffer and loaded into an Any kD Mini-protean TGX gel (Bio Rad). Cross-linked protein was visualized using Colloidal Coomassie G-250 stain.

As for `CSc1ccc(NC(=O)Nc2ccc(Nc3nccc(Nc4cc(C5CC5)[nH]n4)n3)cc2)cc1` [IPA], the “time until XBP1 mRNA splicing was induced” value in assay [1] (2 μM IPA) is no more than 2 h. In assay [1], the “XBP1 mRNA splicing (in words)” value was “induced XBP1 mRNA splicing in a time- and dose-dependent manner”. Further, the “Tm activation of PERK in the presence of compound” value in assay [2] (4 μM IPA + Tm 2 µg/ml) is recorded as “Tm addition did not activate PERK”. In addition, the “PERK phosphorylation (mobility shift), paralleled by eIF2α phosphorylation” value in assay [2] (4 hr, 0.1, 0.5, and 1 µM) was “induced a shift in the mobility of PERK”; in assay [2] (4 hr, 2 and 4 μM), “severely diminished or not detectable”. Also, the “reversibility of PERK inhibition (wash-out)” value in assay [2] (IPA wash-out then Tm) is listed as “reversible”. In assay [3], the “PERK oligomerization (cross-linked dimers, trimers, tetramers)” value is recorded as “significantly increased PERK oligomerization”.

On to `CSc1ccc(NC(=O)Nc2ccc(Nc3nccc(Nc4cc(C5CC5)n(C)n4)n3)cc2)cc1` [IPAx], for which, in assay [1], the “XBP1 mRNA splicing (in words)” value is “did not induce XBP1 mRNA splicing”. Also, the “PERK or eIF2α phosphorylation” value in assay [2] (4 hr, 1 µM) is given as “did not stimulate PERK or eIF2α phosphorylation”. The “PERK oligomerization (cross-linked dimers, trimers, tetramers)” value in assay [3] was “showed no effect”.
